Key:
[1] = molecular target: T1, PAR2 (HT-29 cells, SLIGKV activation) (Homo sapiens, UniProt P55085); assay: Ca FLIPR TETRA assay, ANTAGONIST mode, stimulation with 8 μM SLIGKV; format: cell-based; details: HT-29 cells
T1 construct: host or cells: HT-29 cells
T1 sequence (P55085 26-397): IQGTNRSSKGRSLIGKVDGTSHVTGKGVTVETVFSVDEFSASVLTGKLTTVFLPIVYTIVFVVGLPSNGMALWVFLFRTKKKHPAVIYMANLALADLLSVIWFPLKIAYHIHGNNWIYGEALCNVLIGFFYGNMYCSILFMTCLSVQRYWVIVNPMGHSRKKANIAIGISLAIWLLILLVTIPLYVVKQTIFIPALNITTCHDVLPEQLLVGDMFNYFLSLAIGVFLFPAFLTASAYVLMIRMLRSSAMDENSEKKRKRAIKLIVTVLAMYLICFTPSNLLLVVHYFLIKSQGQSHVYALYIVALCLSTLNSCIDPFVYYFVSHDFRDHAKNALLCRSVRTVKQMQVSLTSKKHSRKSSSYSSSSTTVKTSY
How it was run: (§1)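 HT-29 cells in 1% FBS/McCoy's overnight, loaded with Calcium 5 dye; compounds added and read first for intrinsic Ca2+ activation, then incubated 30 min at r.t. Antagonism read on FLIPR Tetra after stimulation with final 8 μM SLIGKV, 3.1 U/mL trypsin, 1 U/mL thrombin or 0.6 μM UTP.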

[2] = test system: Thrombin-stimulated Ca2+ response in HT-29 cells; assay: Ca FLIPR TETRA assay, ANTAGONIST mode, stimulation with 1 U/mL Thrombin; format: cell-based, human; details: Homo sapiens, HT-29 cells
How it was run: as §1

[3] = test system: UTP-stimulated Ca2+ response in HT-29 cells; assay: Ca FLIPR TETRA assay, ANTAGONIST mode, stimulation with 0.6 μM UTP; format: cell-based, human; details: Homo sapiens, HT-29 cells
How it was run: as §1

[4] = molecular target: T2, PAR2 (HT-29 cells, trypsin activation) (Homo sapiens, UniProt P55085); assay: Ca FLIPR TETRA assay, ANTAGONIST mode, stimulation with 3.1 U/mL trypsin; format: cell-based; details: HT-29 cells
T2 construct: host or cells: HT-29 cells
T2 sequence (P55085 26-397): T1 sequence (P55085 26-397)
How it was run: as §1

[5] = stimulation with 1 U/mL Thrombin
[6] = stimulation with 3.1 U/mL trypsin
[7] = antagonist mode, stimulation with 8 μM SLIGKV
[8] = antagonist mode, stimulation with 1 U/mL Thrombin
[9] = antagonist mode, stimulation with 0.6 μM UTP
[10] = antagonist mode, stimulation with 3.1 U/mL trypsin

IC50 ([1]; stimulation with 8 μM SLIGKV)	IC50 [2, 5]	IC50 ([3]; stimulation with 0.6 μM UTP)	IC50 [4, 6]	IC50 [1, 7]	IC50 [2, 8]	IC50 [3, 9]	IC50 [4, 10]	Compound	also measured
23 nM	43000 nM	41000 nM	62 nM	–	–	–	–	CC1(C)C(=O)NCCN1C(=O)c1cn2nc(-c3ccc(F)cc3)cc(C(F)(F)F)c2n1 [Compound I-35, 4-[6-(4-Fluorophenyl)-8-(trifluoromethyl)imidazo[1,2-b]pyridazine-2-carbonyl]-3,3-dimethyl-piperazin-2-one]	–
8 nM	20000 nM	23000 nM	13 nM	–	–	–	–	CCc1cc(-c2ccc(F)cc2)nn2cc(C(=O)N3CCN(C(=O)[C@H](O)CC4CC4)CC3(C)C)nc12 [Compound I-173]	–
–	–	–	–	0.9 nM	690 nM	> 1000 nM	4.3 nM	Cc1cccc(-c2cc(C(C)(C)C)c3nc(C(=O)N4CCN(C(=O)c5ccn[nH]5)CC4(C)C)cn3n2)c1 [Compound I-404]	–
2800 nM	20000 nM	18000 nM	6800 nM	–	–	–	–	CC(C)c1cc(Cl)nn2cc(C(=O)N3CCN(C(=O)OC(C)(C)C)CC3(C)C)nc12 [Compound I-18, tert-Butyl 4-(6-chloro-8-isopropyl-imidazo[1,2-b]pyridazine-2-carbonyl)-3,3-dimethyl-piperazine-1-carboxylate]	–
160 nM	18000 nM	16000 nM	825 nM	–	–	–	–	CCc1cc(-c2ccc(F)cc2)nn2cc(C(=O)N3CCN(C(=O)OC(C)(C)C)[C@@H](C)C3)nc12 [Compound I-3, tert-Butyl (2S)-4-[8-ethyl-6-(4-fluorophenyl)imidazo[1,2-b]pyridazine-2-carbonyl]-2-methyl-piperazine-1-carboxylate]	–
–	–	–	–	15.4 nM	> 1000 nM	> 1000 nM	15.8 nM	Cc1nnc(C(=O)N2CCN(C(=O)c3cn4nc(-c5ccc(F)c(C)c5)cc(C(C)C)c4n3)C(C)(C)C2)o1 [Compound I-344]	–
–	–	–	–	10.4 nM	> 1000 nM	> 1000 nM	7.6 nM	CC(C)c1cc(-c2ccc(F)cc2)nn2cc(C(=O)N3CCN(C(=O)C(C)(N)C(F)(F)F)CC3(C)C)nc12 (stereo not drawn) [Compound I-314]	–
–	–	–	–	0.1 nM	> 1000 nM	> 1000 nM	0.3 nM	Cc1cc(C(=O)N2CCN(C(=O)c3cn4nc(-c5ccc(Cl)c(F)c5)cc(C(C)(C)C)c4n3)C(C)(C)C2)[nH]n1 [Compound I-450]	–
–	–	–	–	0.8 nM	> 1000 nM	> 1000 nM	0.7 nM	CC(C)(C)c1cc(-c2ccc(Cl)cc2)nn2cc(C(=O)N3CCN(C(=O)c4ccn[nH]4)CC3(C)C)nc12 [Compound I-435]	–
–	–	–	–	0.5 nM	> 1000 nM	> 1000 nM	0.5 nM	Cc1cc(C(=O)N2CCN(C(=O)c3cn4nc(-c5ccc(Cl)cc5)cc(C(C)(C)C)c4n3)C(C)(C)C2)[nH]n1 [Compound I-434]	–
–	–	–	–	0.5 nM	> 1000 nM	> 1000 nM	0.6 nM	Cc1ncc(C(=O)N2CCN(C(=O)c3cn4nc(-c5ccc(Cl)cc5)cc(C(C)(C)C)c4n3)C(C)(C)C2)[nH]1 [Compound I-441]	–
–	–	–	–	3.2 nM	> 1000 nM	> 1000 nM	6.4 nM	CC(C)c1cc(-c2ccc(F)cc2)nn2cc(C(=O)N3CCN(C(=O)c4ccn[nH]4)CC3(C)C)nc12 [Compound I-239]	–
22 nM	14000 nM	22000 nM	100 nM	–	–	–	–	C[C@H]1CN(C(=O)c2cn3nc(-c4ccc(F)cc4)cc(C(F)(F)F)c3n2)CCN1C(=O)OCC(C)(C)C [Compound I-82]	–
–	–	–	–	2.4 nM	> 1000 nM	> 1000 nM	3.2 nM	CC(C)(C)c1cc(-c2ccc(Cl)cc2)nn2cc(C(=O)N3CCN(C(=O)[C@H]4CC[C@H](C(=O)O)CC4)CC3(C)C)nc12 [Compound I-491]	–
–	–	–	–	6.1 nM	> 1000 nM	> 1000 nM	12.3 nM	Cc1ccc(-c2cc(C(C)C)c3nc(C(=O)N4CCN(C(=O)c5ccncn5)CC4(C)C)cn3n2)cc1 [Compound I-256]	–
950 nM	43000 nM	> 50000 nM	680 nM	–	–	–	–	O=C(c1cn2nc(-c3ccc(F)cc3)cc(C(F)(F)F)c2n1)N1CCCCC1c1ccccc1 (stereo not drawn) [Compound I-71]	–
6 nM	8000 nM	6600 nM	61 nM	–	–	–	–	CCCCC(=O)N1CCN(C(=O)c2cn3nc(-c4ccc(F)cc4)cc(C(C)C)c3n2)C[C@@H]1C [Compound I-147]	–

IC50 ([1]; stimulation with 8 μM SLIGKV)	IC50 [2, 5]	IC50 ([3]; stimulation with 0.6 μM UTP)	IC50 [4, 6]	IC50 [1, 7]	IC50 [2, 8]	IC50 [3, 9]	IC50 [4, 10]	Compound	also measured
–	–	–	–	12.4 nM	> 1000 nM	> 1000 nM	13.9 nM	CC(C)(C)c1cc(-c2ccc(F)cc2)nn2cc(C(=O)N3CCN(C(=O)[C@H]4CC[C@H](C(=O)O)CC4)CC3(C)C)nc12 [Compound I-494, (1R,4R)-4-(4-(8-(tert-butyl)-6-(4-fluorophenyl)imidazo[1,2-b]pyridazine-2-carbonyl)-3,3-dimethylpiperazine-1-carbonyl)cyclohexane-1-carboxylic acid]	–
–	–	–	–	0.6 nM	> 1000 nM	> 1000 nM	0.8 nM	COC(=O)C1(C)CCC(C(=O)N2CCN(C(=O)c3cn4nc(-c5ccc(F)cc5)cc(C(C)(C)C)c4n3)C(C)(C)C2)CC1 (stereo not drawn) [Compound I-526]	–
–	–	–	–	2.2 nM	> 1000 nM	> 1000 nM	3.7 nM	COC(=O)CCC(=O)N1CCN(C(=O)c2cn3nc(-c4ccc(F)cc4)cc(C(C)(C)C)c3n2)C(C)(C)C1 [Compound I-529]	–
6700 nM	9200 nM	17000 nM	12000 nM	–	–	–	–	NC(=O)C1CCCCN1C(=O)c1cn2nc(-c3ccc(F)cc3)cc(C(F)(F)F)c2n1 (stereo not drawn) [Compound I-81]	–
3 nM	> 50000 nM	> 50000 nM	10 nM	–	–	–	–	C=C(C)c1cc(-c2ccc(F)cc2)nn2cc(C(=O)N3CCN(C(=O)[C@H](O)CC(C)(C)C)[C@@H](C)C3)nc12 [Compound I-99]	–
–	–	–	–	2.6 nM	> 1000 nM	> 1000 nM	4.2 nM	Cc1nc(N2CCN(C(=O)c3cn4nc(-c5ccc(F)cc5)cc(C(C)(C)C)c4n3)C(C)(C)C2=O)c[nH]1 [Compound I-367]	–
–	–	–	–	9.8 nM	> 1000 nM	> 1000 nM	16.7 nM	CC(C)c1cc(-c2ccc(F)cc2)nn2cc(C(=O)N3CCN(c4nn[nH]n4)C(=O)C3(C)C)nc12 [Compound I-275]	–
–	–	–	–	–	–	–	–	CC1(C)C(=O)NCCN1C(=O)c1cn2nc(-c3ccc(F)cc3)cc(-c3ccsc3)c2n1 [Compound I-567, 4-(6-(4-fluorophenyl)-8-(thiophen-3-yl)imidazo[1,2-b]pyridazine-2-carbonyl)-3,3-dimethylpiperazin-2-one]	IC50 ([1]; antagonist mode, 8 μM SLIGKV): 23 nM; IC50 ([2]; antagonist mode, 1 U/mL Thrombin): > 1000 nM; IC50 ([3]; antagonist mode, 0.6 μM UTP): > 1000 nM; IC50 ([4]; antagonist mode, 3.1 U/mL trypsin): 49.8 nM
9 nM	> 50000 nM	> 50000 nM	21 nM	–	–	–	–	CC(C)c1cc(-c2ccc(F)cc2)nn2cc(C(=O)N3CCNC(=O)C3(C)C)nc12 [Compound I-25, 4-[6-(4-fluorophenyl)-8-isopropyl-imidazo[1,2-b]pyridazine-2-carbonyl]-3,3-dimethyl-piperazin-2-one]	–
–	–	–	–	12.6 nM	> 1000 nM	> 1000 nM	8.2 nM	Cc1cc(-c2cc(C(C)C)c3nc(C(=O)N4CCN(C(=O)c5nc[nH]n5)CC4(C)C)cn3n2)ccc1F [Compound I-342]	–
270 nM	> 50000 nM	> 50000 nM	900 nM	–	–	–	–	C[C@H]1CN(C(=O)c2cn3nc(-c4ccc(F)cc4)cc(C(F)(F)F)c3n2)CCN1C(=O)c1ccccc1 [Compound I-89]	–
–	–	–	–	5.4 nM	> 1000 nM	> 1000 nM	7.3 nM	Cc1nc(N2CCN(C(=O)c3cn4nc(-c5ccc(C)c(F)c5)cc(C(C)(C)C)c4n3)C(C)(C)C2=O)c[nH]1 [Compound I-369]	–
–	–	–	–	3.4 nM	530 nM	730 nM	3.1 nM	Cc1cn[nH]c1C(=O)N1CCN(C(=O)c2cn3nc(-c4ccc(F)cc4)cc(C(C)(C)C)c3n2)C(C)(C)C1 [Compound I-290]	–
–	–	–	–	23 nM	> 1000 nM	> 1000 nM	87 nM	CC(C)c1cc(-c2ccc(F)cc2)nn2cc(C(=O)N3CCOC(=O)C3(C)C)nc12 [Compound I-511]	–
–	–	–	–	3.9 nM	570 nM	> 1000 nM	5.6 nM	Cc1cc(-c2cc(C(C)C)c3nc(C(=O)N4CCN(C(=O)[C@H]5C[C@@](O)(C(F)(F)F)C5)CC4(C)C)cn3n2)ccc1F [Compound I-265]	–
–	–	–	–	1.4 nM	560 nM	> 1000 nM	2 nM	CC(C)(C)c1cc(-c2ccc(F)cc2)nn2cc(C(=O)N3CCN(CC#N)C(=O)C3(C)C)nc12 [Compound I-267]	–

Source: US20190119282A1, “IMIDAZOPYRIDAZINES USEFUL AS INHIBITORS OF THE PAR-2 SIGNALING PATHWAY” (Vertex Pharmaceuticals Incorporated, priority 2013, published 2019)
